Laboratory results: patent US20160304611A1, “COMBINATION THERAPY FOR TREATING ADULT PATIENTS WITH RELAPSED/REFRACTORY CD22+ B-CELL ACUTE LYMPHOBLASTIC LEUKEMIA” (Immunomedics, Inc., priority 2015, published 2016)
Several values for one entry are separate records, joined by “and”; a condition that tells them apart may be missing. Equal entries are not always repeated.

Columns and labels:
[1] = tested on: relapsed/refractory CD22+B-ALL; assay: Prospective Phase 2 study of epratuzumab added to vincristine and dexamethasone (salvage chemoimmunotherapy); format: in vivo, human
Experimental: Here, we have evaluated the addition of epratuzumab (hLL2, 360 mg/m^2/d iv on days 1, 8, 15, and 22) to the combination of vincristine (2 mg iv, days 1, 8, 15 and 22) and dexamethasone (40 mg/d po, days 1, 8, 15, and 22) in patients >55 years old, with relapsed/refractory CD22+B-ALL. Dexamethasone was administered before epratuzumab administration+paracetamol 1 g as prophylaxis in order to prevent epratuzumab infusion reactions. Also, intrathecal injections of methotrexate 15 mg, aracytine 40 mg, and depomedrol 40 mg were recommended on days 1 and 8.
This prospective Phase 2 study was conducted at 6 French centers and was approved by the Brest ethical committee and the clinical trial department of the “Agence Française de Sécurité Sanitaire des Produits de Santé” (AFSSAPS). This trial is registered as NCT01219816. Epratuzumab was supplied by Immunomedics, Inc. (Morris Plains, N.J., USA). Written informed consent was obtained from each patient.
The main objective of the study was the CR rate defined by patients reaching CR+CR without platelets recovery (CRi). CR was defined as <5% marrow blasts, neutrophils >1×10^9/L, platelets >100×10^9/L and no evidence of extramedullary disease. CRi was defined similarly but without recovery of platelets counts. Partial response (PR) was defined as a decrease of >50% of blasts in the bone marrow.
(§1) Responses were evaluated between 4 and 6 weeks post-salvage regimen. Patients in response (CR, CRi or PR) were allowed to receive a second cycle as consolidation. Toxicity was evaluated according to the NCI-CTC criteria version 4. Cytologic, phenotypic, karyotype and BCR-ABL1 (for Ph+B-ALL) molecular analyses were performed on blood samples and/or BM aspirates by standard methods.
Over a three year period, 26 patients were enrolled. One case was excluded because of progression before receiving the treatment, while 2 younger patients were inappropriately included (person in fourth relapse and a person with refractory second relapse). All the 25 treated patients were considered for analysis.

Leukemic blasts = assay: Minimal residual disease (MRD) evaluated by flow cytometry on bone marrow samples; format: in vivo, human
Experimental: FIG. 1A. Minimal residual disease (MRD) evaluated by flow cytometry. All patients were monitored for CD22 expression before treatment and then for phenotypic MRD. Leukemic blasts were evaluated using a 8 colors panel including antibodies to CD45, CD19, CD10, CD34, CD38, CD58, CD20 and CD22. MRD was assessed, concomitantly to responses, between 4 and 6 weeks after beginning the salvage regimen using flow cytometry (FACS CANTO II, BD, Biosciences, San Jose, Calif.) performed on bone marrow samples. Two different anti-CD22 antibodies were used. The RFB4 antibody (PE conjugated, Invitrogen, Camarillo, Calif.) and epratuzumab bind competitively to CD22, meaning that in the presence of epratuzumab, RFB4 binding is blocked. By contrast, the SHCL-1 antibody (PE or PerCp-Cy5.5 conjugated, BD Biosciences, San Jose, Calif.) binds to a non-crossblocking epitope and can be used to assess the modulation of the CD22 antigen on the blasts surface. […] Case 1: An example of positive MRD. Leukemic blasts were both CD22-RFB4 and CD22-SHCL-1 positive before treatment. After treatment, the percentage of blasts is estimated at 0.05%.
FIG. 1B. Minimal residual disease (MRD) evaluated by flow cytometry. All patients were monitored for CD22 expression before treatment and then for phenotypic MRD. Leukemic blasts were evaluated using a 8 colors panel including antibodies to CD45, CD19, CD10, CD34, CD38, CD58, CD20 and CD22. MRD was assessed, concomitantly to responses, between 4 and 6 weeks after beginning the salvage regimen using flow cytometry (FACS CANTO II, BD, Biosciences, San Jose, Calif.) performed on bone marrow samples. Two different anti-CD22 antibodies were used. The RFB4 antibody (PE conjugated, Invitrogen, Camarillo, Calif.) and epratuzumab bind competitively to CD22, meaning that in the presence of epratuzumab, RFB4 binding is blocked. By contrast, the SHCL-1 antibody (PE or PerCp-Cy5.5 conjugated, BD Biosciences, San Jose, Calif.) binds to a non-crossblocking epitope and can be used to assess the modulation of the CD22 antigen on the blasts surface. […] Case 2: An example of “negative” MRD. Leukemic blasts (CD10/CD20 negative) are both CD22-RFB4 and CD22-SHCL-1 positive before treatment. After treatment, MRD was <10^−5.

[2] = Toxicity evaluated according to the NCI-CTC criteria version 4; format: in vivo, human
Experimental: as §1

CD22 = CD22 expression on blasts after treatment, flow cytometry with RFB4 and SHCL-1 anti-CD22 antibodies; format: cell-based, human; conditions: non-responders and three patients with detectable MRD
Experimental: (§2) FIG. 1A. Minimal residual disease (MRD) evaluated by flow cytometry. All patients were monitored for CD22 expression before treatment and then for phenotypic MRD. Leukemic blasts were evaluated using a 8 colors panel including antibodies to CD45, CD19, CD10, CD34, CD38, CD58, CD20 and CD22. MRD was assessed, concomitantly to responses, between 4 and 6 weeks after beginning the salvage regimen using flow cytometry (FACS CANTO II, BD, Biosciences, San Jose, Calif.) performed on bone marrow samples. Two different anti-CD22 antibodies were used. The RFB4 antibody (PE conjugated, Invitrogen, Camarillo, Calif.) and epratuzumab bind competitively to CD22, meaning that in the presence of epratuzumab, RFB4 binding is blocked. […]
as §2, with “1B.” for “1A.”, “samples.” for “samples. Two different anti-CD22 antibodies were used. The RFB4 antibody (PE conjugated, Invitrogen, Camarillo, Calif.) and epratuzumab bind competitively to CD22, meaning that in the presence of epratuzumab, RFB4 binding is blocked.”

[3] = in subjects; cited from earlier work
[4] = combination with vincristine and dexamethasone, 25 treated patients
[5] = combination with vincristine and dexamethasone, of 25 treated patients
[6] = combination with vincristine and dexamethasone, six Ph+B-ALL patients
[7] = combination with vincristine and dexamethasone, unclear etiology

In the case of “epratuzumab: anti-CD22 humanized antibody (Immunomedics, Inc.); given here with vincristine and dexamethasone”, the “CR+CRi rate” value [1, 4] was 20%, the PR rate [1, 4] was 20% and the “patients who died during treatment due to progression of the disease” value [1, 4] was “Two”. The “number of patients with CR” value [1, 5] was 4, the “number of patients with CRi” value [1, 5] was 1 and the “number of patients with PR” value [1, 5] was 5. For the same substance, the median leukemia-free survival ([1]; combination with vincristine and dexamethasone, patients achieving CR/CRi, range 1-8) was 3.8 months, the “number of patients with CR among Ph+B-ALL patients” value [1, 6] was 2 and the “number of patients with PR among Ph+B-ALL patients” value [1, 6] was 1. For the same substance, the “1-year OS” value ([1]; combination with vincristine and dexamethasone, whole cohort N=25, estimated) was 13+7%, the “median overall survival (OS)” value ([1]; combination with vincristine and dexamethasone, whole cohort N=25, range 0.5-43) was 4 months and the overall response rate ([1]; epratuzumab 360 mg/m2/d iv + vincristine 2 mg iv + dexamethasone 40 mg/d po, days 1, 8, 15, 22, 25 treated patients, evaluated 4-6 weeks post-salvage) was 40%. The “percentage of blasts after treatment” value (Leukemic blasts; FIG. 1A, Case 1, example of positive MRD) was 0.05%, the MRD after treatment (Leukemic blasts; FIG. 1B, Case 2, example of negative MRD) was < 10^−5 and the “number of CR/CRi patients with undetectable MRD” value (Leukemic blasts; combination with vincristine and dexamethasone, 5 CR/CRi patients) was 2. For the same substance, the “MRD evaluated by cytometry, individual responder patient” value (Leukemic blasts; combination with vincristine and dexamethasone, CR/CRi patient with detectable MRD) was 1.2%, the “MRD evaluated by cytometry, individual responder patients” value (Leukemic blasts; combination with vincristine and dexamethasone, CR/CRi patients with detectable MRD) was 5×10^−4 and 7×10^−3 and the “tolerability of salvage regimen” value ([2]; combination with vincristine and dexamethasone, large majority of grade 3/4 toxicities were expected pancytopenia) was “generally tolerated well”. The “grade-3 renal toxicity, number of cases” value [2, 7] was “One”, the “grade-4 hypertriglyceridemia, number of cases” value [2, 7] was “one” and the “grade-3 allergic toxicity, number of cases” value ([2]; related to the first epratuzumab infusion) was “One”. The “targeting of CD22 on residual blasts (RFB4 negative, SHCL-1 positive)” value (CD22) was “persistent targeting of epratuzumab on blasts without loss of the CD22/epratuzumab complex from the cell surface”.
For “veltuzumab: humanized IgG1 antibody against CD20”, the “immunogenicity compared with rituximab” value [3] is listed as “less immunogenic”.
